Test results from the Kinase Knowledgebase extract (Sharma et al. 2016).
pIC50: −log10 of the molar value.

Each molecule was assayed against MAPK14 (human) (UniProt Q16539) (assay: Inhibition of MAPK14 Kinase Activity).
MAPK14 (human), sequence (Q16539 whole entry, looked up): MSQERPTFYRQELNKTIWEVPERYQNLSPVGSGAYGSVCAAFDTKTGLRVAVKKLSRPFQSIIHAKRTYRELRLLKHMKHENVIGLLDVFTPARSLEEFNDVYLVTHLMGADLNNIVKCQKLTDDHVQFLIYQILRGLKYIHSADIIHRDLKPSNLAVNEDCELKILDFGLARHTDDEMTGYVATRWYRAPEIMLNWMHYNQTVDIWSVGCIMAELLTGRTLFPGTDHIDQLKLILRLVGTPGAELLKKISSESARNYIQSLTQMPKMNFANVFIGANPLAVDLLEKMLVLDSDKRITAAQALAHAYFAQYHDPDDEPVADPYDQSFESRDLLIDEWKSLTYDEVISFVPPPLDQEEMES

SMILES	pIC50
Fc1ccc(-c2oncc2-c2ccncc2)cc1	4.39
Fc1ccc(-c2oc(-c3ccc(Cl)cc3)cc2-c2ccncc2)cc1	6.20
CC(C)c1noc(-c2ccc(F)cc2)c1-c1ccnc(NCC2CC2)c1	5.89
CC(C)c1noc(-c2ccc(F)cc2)c1-c1ccnc(NC2CC2)c1	5.70
CN1CCC(O)(c2nc(-c3ccc(F)cc3)c(-c3ccncc3)[nH]2)CC1	7.05
Fc1ccc(-c2oncc2-c2ccnc(Br)c2)cc1	4.05
CN1CCC(O)(c2nc(-c3ccncc3)c(-c3ccc(F)cc3)o2)CC1	5.70
Fc1ccc(-c2oncc2-c2ccnc(OCCc3ccccc3)c2)cc1	4.47
CCOc1cc(-c2cnoc2-c2ccc(F)cc2)ccn1	4.09
CCOc1cc(-c2c(C(C)C)noc2-c2ccc(F)cc2)ccn1	4.25
CCCNc1cc(-c2c(C(C)C)noc2-c2ccc(F)cc2)ccn1	5.40
CCCCOc1cc(-c2cnoc2-c2ccc(F)cc2)ccn1	4.68
CN1CCC(O)(c2nc(-c3ccc(F)cc3)c(-c3ccncc3)o2)CC1	6.46
C[S+]([O-])c1ccc(-c2cc(-c3ccc(F)cc3)c(-c3ccncc3)[nH]2)cc1 (stereo not drawn)	5.91
Nc1onc(-c2ccncc2)c1-c1ccc(F)cc1	5.79
Fc1ccc(-c2nc[nH]c2-c2ccncc2)cc1	6.77
Fc1ccc(-c2[nH]c(-c3ccc(Cl)cc3)cc2-c2ccncc2)cc1	6.70
Fc1ccc(-c2conc2-c2ccncc2)cc1	5.91
CC(C)c1noc(-c2ccc(F)cc2)c1-c1ccnc(NC(C)c2ccccc2)c1 (stereo not drawn)	6.26
COc1cc(-c2cnoc2-c2ccc(F)cc2)ccn1	4.30
CC(C)Oc1cc(-c2cnoc2-c2ccc(F)cc2)ccn1	4.51
CCCCCNc1cc(-c2c(C(C)C)noc2-c2ccc(F)cc2)ccn1	4.09
Fc1ccc(-c2oncc2-c2ccnc(Cl)c2)cc1	4.38
